From article PMC8388125, “Kinetic and Structural Characterization of the Self-Labeling Protein Tags HaloTag7, SNAP-tag, and CLIP-tag” (Biochemistry, 2021)
Where a chain is given by its changes, count along the chain named. Several values for one entry are separate records, joined by “and”; a condition that tells them apart may be missing. Equal entries are not always repeated.

Columns and labels:
[1] = target: T1, HaloTag7 (HT7) (Rhodococcus sp., UniProt P59336, A155T/A167V/A224E/C128F/C176G/D78G/E160K/E257K/G292T/H272N/K175M/K195N/L47V/L88M/N227D/P291S/S2A/S58T/T264A/V172T/Y273L/Y87F); experiment: HT7 labeling kinetics via stopped flow (fluorescence anisotropy); format: biochemical
T1 construct: made in house; host or cells: E. coli BL21(DE3)-pLysS
Method: Labeling kinetics of HT7 with CA-TMR, CA-JF549, CA-CPY, CA-LIVE580, and CA-JF669 and labeling kinetics of HOB with CA-TMR were measured by recording fluorescence anisotropy changes over time using a BioLogic SFM-400 stopped-flow instrument (BioLogic Science Instruments, Claix, France) in a single-mixing configuration at 37 °C. HT7 protein and substrates in activity buffer were mixed in a 1:1 stoichiometry to reach a recordable speed for these fast reactions and to increase the information content of the traces. Concentrations were varied from 0.125 to 1 μM. The anisotropy of the free substrate was measured to obtain a baseline.
(§1) Kinetic stopped-flow data were preprocessed using a custom R script.[36],[37] Recorded pretrigger time points were removed, and time points were adjusted to start at time zero. Values from replicates were averaged. The anisotropy of the free dye was calculated by averaging anisotropy values of the baseline measurements. Preprocessed data were fitted to a kinetic model (eqs 5 and 6) described by differential eqs 7–10 using the DynaFit software.[38] The anisotropy of the free dye and the mixing delay of the stopped-flow machine were set as fixed offset and delay parameters in DynaFit. It was assumed that the protein substrate complex and the reacted product are contributing equally to the anisotropy signal. […] Standard deviations (normal distribution verified) and confidence intervals of fitted parameters were estimated with the Monte Carlo method[39] with standard settings (N = 1000, 5% worst fits discarded). In the case of SNAP kinetics with BG-TMR, the substrate concentration was fitted by DynaFit to rule out quantification errors of the BG-quenched fluorophore. Accurate fitting of the concentration was ensured by including conditions in which protein is limiting and no maximum FP value was reached.

[2] = target: T2, HT7^D106A (Rhodococcus sp., UniProt P59336, A155T/A167V/A224E/C128F/C176G/D106A/D78G/E160K/E257K/G292T/H272N/K175M/K195N/L47V/L88M/N227D/P291S/S2A/S58T/T264A/V172T/Y273L/Y87F); experiment: Affinity of HT7^D106A for CA substrates by fluorescence polarization; format: binding; settings: HT7^D106A
T2 construct: made in house; host or cells: E. coli BL21(DE3)-pLysS
Method: Binding affinities of HT7^D106A or HOB^D106A for chloroalkane (CA) substrates were determined by fluorescence polarization (FP, eq 1) measurements using a microplate reader (Spark20M, Tecan Group AG, Männedorf, Switzerland). The fluorescent substrates (10 nM) were titrated against different protein concentrations (0–250 μM) in activity buffer supplemented with 0.5 g/L bovine serum albumin (BSA). Assays were performed in black low-volume nonbinding 384-well plates (Corning Inc., Corning, NY) with a final volume of 20 μL. Obtained FP values were averaged and fitted to a single-site binding model (eq 2) to estimate Kd values for each fluorescent substrate. The FP value of each dye fully reacted with the native HT7 was used to improve fitting of the upper plateau of the curves by adding an extra data point at a protein concentration of 0.1 M. [drawing 1] 1 where FP is the fluorescence polarization, I∥ is the fluorescence intensity parallel to the excitation light polarization, I⊥ is the fluorescence intensity perpendicular to the excitation light polarization, and G is the grating factor (G = I∥/I⊥). [drawing 2] 2 where FPmin is the fluorescence polarization of the free fluorophore (lower plateau), FPmax is the maximal fluorescence polarization of fully bound fluorophore (upper plateau), Kd is the dissociation constant, and [protein] is the protein concentration.
Free binding energies were calculated from Kd values according to eq 4: [drawing 4] 4 where ΔG is the free binding energy, R is the universal gas constant, T is the temperature, and Kd is the dissociation constant.

[3] = target: T3, SNAP^C145A (Homo sapiens, UniProt P16455, A127T/A154D/C145A/C150Q/C62A/G131K/G132T/G153L/K125A/K32I/L33F/M134L/N157G/Q115S/Q116H/R128A/R135S/S151G/S152D/S159E); experiment: Affinity of SNAP^C145A for nonfluorescent substrates via FP competition assay against CP-TMR; format: binding; settings: FP competition against CP-TMR, room temperature
T3 construct: made in house; host or cells: E. coli BL21(DE3)-pLysS
T3 sequence (P16455 1-182 K32I/L33F/C62A/Q115S/Q116H/K125A/A127T/R128A/G131K/G132T/M134L/R135S/C145A/C150Q/S151G/S152D/G153L/A154D/N157G/S159E limits assumed): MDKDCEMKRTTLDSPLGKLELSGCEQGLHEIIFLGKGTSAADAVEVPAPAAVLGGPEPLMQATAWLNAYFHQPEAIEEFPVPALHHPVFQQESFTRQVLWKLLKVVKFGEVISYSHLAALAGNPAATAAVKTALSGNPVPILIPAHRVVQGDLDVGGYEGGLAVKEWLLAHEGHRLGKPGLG
Method: Binding affinities of SNAP^C145A for BG, CP, BG-Ac, CP-Ac, and BC-Ac were obtained as previously described for HT7 by titrating 5 μM protein and 50 nM CP-TMR against nonfluorescent substrate concentrations ranging from 150 nM to 1.5 mM. Experimental conditions and data analysis were identical despite the fact that 1 mM DTT was added to the buffer and the assay was performed at room temperature.

[4] = target: T4, SNAP-tag (SNAP) (Homo sapiens, UniProt P16455, A127T/A154D/C150Q/C62A/G131K/G132T/G153L/K125A/K32I/L33F/M134L/N157G/Q115S/Q116H/R128A/R135S/S151G/S152D/S159E); experiment: SNAP competitive labeling kinetics against BG-Alexa488; format: biochemical; settings: nonfluorescent substrates, competition with BG-Alexa488
T4 construct: made in house; host or cells: E. coli BL21(DE3)-pLysS
T4 sequence (P16455 1-182 K32I/L33F/C62A/Q115S/Q116H/K125A/A127T/R128A/G131K/G132T/M134L/R135S/C150Q/S151G/S152D/G153L/A154D/N157G/S159E limits assumed): T3 sequence (P16455 1-182 K32I/L33F/C62A/Q115S/Q116H/K125A/A127T/R128A/G131K/G132T/M134L/R135S/C145A/C150Q/S151G/S152D/G153L/A154D/N157G/S159E limits assumed) with A145C
Method: Competitive kinetics were measured by recording FP over time using a microplate reader in a manner analogous to that for HT7 competition kinetics described above using 100 nM BG-Alexa488 as the fluorescent substrate in SNAP-FP buffer.
Data were fitted to a simplified kinetic competition model (eqs 19 and 20) described by differential eqs 21–25 using DynaFit. The dead time of the measurements and baseline FP value were put in as fixed parameters. Standard deviations (normal distribution verified) and confidence intervals of fitted parameters were estimated with the Monte Carlo method with standard settings (N = 1000, 5% worst fits discarded). [drawing 19] 19 [drawing 20] 20 where P is the SLP protein, S is the fluorescent SLP substrate, I is the nonfluorescent SLP substrate (inhibitor), PS is the protein–fluorescent substrate conjugate, and PI is the protein–nonfluorescent substrate conjugate. [drawing 21] 21 [drawing 22] 22 [drawing 23] 23 [drawing 24] 24 [drawing 25] 25

[5] = target: T5, CLIP-tag (CLIP) (Homo sapiens, UniProt P16455, A121V/A127T/A154D/C150Q/C62A/G131N/G132T/G153S/K125A/K32I/L33F/M134L/M60I/N157P/Q115S/Q116H/R128A/R135D/S151G/S152D/S159L/Y114E); experiment: CLIP labeling kinetics via microplate reader (FP over time); format: biochemical; settings: CLIP, plate reader, kinetic model 1
T5 construct: made in house; host or cells: E. coli BL21(DE3)-pLysS
T5 sequence (P16455 1-182 K32I/L33F/M60I/C62A/Y114E/Q115S/Q116H/A121V/K125A/A127T/R128A/G131N/G132T/M134L/R135D/C150Q/S151G/S152D/G153S/A154D/N157P/S159L limits assumed): T3 sequence (P16455 1-182 K32I/L33F/C62A/Q115S/Q116H/K125A/A127T/R128A/G131K/G132T/M134L/R135S/C145A/C150Q/S151G/S152D/G153L/A154D/N157G/S159E limits assumed) with M60I, Y114E, A121V, K131N, S135D, A145C, L153S, G157P, E159L
Method: (§2) Labeling kinetics of SNAP and CLIP substrates were measured by recording FP over time using a microplate reader in a manner analogous to that of HT7 labeling kinetics described above with the following changes. The fluorescent substrate concentration was fixed to 20 nM, and protein concentrations were varied from 15 to 900 nM. Measurements were performed in SNAP-FP buffer.
(§3) Kinetic data from microplate reader assays were fitted to a simplified kinetic model (eq 13) described by differential eqs 14–16 using DynaFit. The dead time of the measurements and baseline FP value were put in as fixed parameters. Standard deviations (normal distribution verified) and confidence intervals of fitted parameters were estimated with the Monte Carlo method with standard settings (N = 1000, 5% worst fits discarded). In the case of BG, CP, and BC kinetics, the substrate concentration was fitted by DynaFit to rule out quantification errors of the BG, CP, or BC fluorophores. Accurate fitting of the concentration was ensured by including conditions under which protein is limiting and no maximum FP value was reached.

[6] = target: T4, SNAP-tag (SNAP); experiment: SNAP labeling kinetics via stopped flow (fluorescence anisotropy); format: biochemical; settings: model 2
Method: Labeling kinetics of SNAP with BG-TMR were measured via stopped-flow in a manner analogous to that for HT7 kinetics described above; however, the final substrate concentration was fixed at 2 μM, and the protein concentration was varied from 1.875 to 50 μM. The activity buffer was supplemented with 1 mM DTT.
as §1

[7] = target: T4, SNAP-tag (SNAP); experiment: SNAP labeling kinetics via microplate reader (FP over time); format: biochemical; settings: SNAP, plate reader, kinetic model 1
Method: as §2, §3

[8] = target: T6, hAGT (human O^6-alkylguanine-DNA alkyltransferase) (Homo sapiens, UniProt P16455); experiment: hAGT labeling kinetics via microplate reader (FP over time); format: biochemical
T6 construct: StrepTag-II (N); enterokinase cleavage site (N); His10 (C); made in house; host or cells: E. coli BL21(DE3)-pLysS
T6 sequence (P16455 1-207): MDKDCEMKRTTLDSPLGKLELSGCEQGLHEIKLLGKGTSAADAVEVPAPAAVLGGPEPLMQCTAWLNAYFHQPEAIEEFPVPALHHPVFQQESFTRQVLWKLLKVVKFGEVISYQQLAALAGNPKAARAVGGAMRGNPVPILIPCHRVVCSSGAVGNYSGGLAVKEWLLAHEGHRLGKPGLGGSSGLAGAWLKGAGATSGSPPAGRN
Method: as §2, §3

T1 sequence (P59336 other isoform, or with tags, fused parts or gaps with the stated changes): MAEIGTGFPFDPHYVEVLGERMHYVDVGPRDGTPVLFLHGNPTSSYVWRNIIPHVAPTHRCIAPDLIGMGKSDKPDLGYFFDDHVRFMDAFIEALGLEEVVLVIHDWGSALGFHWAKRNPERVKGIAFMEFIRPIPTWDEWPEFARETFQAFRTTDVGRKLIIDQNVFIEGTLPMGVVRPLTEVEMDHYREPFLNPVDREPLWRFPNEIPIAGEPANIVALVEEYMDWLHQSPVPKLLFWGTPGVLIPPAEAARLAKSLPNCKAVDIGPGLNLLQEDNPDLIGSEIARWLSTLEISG
T2 sequence (P59336 other isoform, or with tags, fused parts or gaps with the stated changes): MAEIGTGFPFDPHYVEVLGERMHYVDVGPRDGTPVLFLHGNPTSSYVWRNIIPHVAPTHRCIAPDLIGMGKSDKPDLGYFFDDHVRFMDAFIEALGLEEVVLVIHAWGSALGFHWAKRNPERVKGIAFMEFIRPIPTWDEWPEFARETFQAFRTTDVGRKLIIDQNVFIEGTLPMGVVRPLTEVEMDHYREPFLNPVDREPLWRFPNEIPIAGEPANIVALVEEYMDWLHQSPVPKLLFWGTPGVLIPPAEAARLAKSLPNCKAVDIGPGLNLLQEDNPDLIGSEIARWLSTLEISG

In the case of `CN(C)c1ccc2c(c1)C(C)(C)C1=CC(=[N+](C)C)C=CC1=C2c1cc(C(=O)NCCOCCOCCCCCCCl)ccc1C(=O)[O-]` [CA-CPY, chloroalkane-PEG-carbopyronine], the Kd [1] is reported as 0.046 µM, the “k2 (± S.D.)” value ([1]; HT7, stopped flow, model 2) is reported as 9.9 s-1 and 9.86 (± 0.73) s-1 and the “k-1 (± S.D.)” value ([1]; HT7, stopped flow, model 2) is reported as 7.60 (± 0.98) s-1. For the same compound, the “fold decrease in affinity of the 5-substituted compared to the 6-substituted rhodamine substrate” value [2] was 22.7 fold.

For `CC(=O)NCc1ccc(COc2cc(Cl)nc(N)n2)cc1` [CP-Ac], the Kd [3] was 201 µM and the “kapp (value ± standard deviation)” value [4] was “(3.45 ± 0.38) × 10^3 M^–1 s^–1”.

In the case of `CN(C)c1ccc2c(-c3cc(C(=O)NCc4ccc(COc5cc(Cl)nc(N)n5)cc4)ccc3C(=O)[O-])c3ccc(=[N+](C)C)cc-3oc2c1` [CP-TMR], the “kapp (value ± standard deviation)” value [5] is reported as “(7.22 ± 0.04) × 10^0 M^–1 s^–1”, the “fold higher k–1 than BG-TMR” value [6] is reported as 8.8 fold and the “k2 (± S.D.)” value [6] is reported as 1.58 (± 0.04) s-1. For the same compound, the “k-1 (± S.D.)” value [6] was 8.96 (± 0.71) s-1, the “kapp (value ± standard deviation)” value [7] was “(7.69 ± 0.01) × 10^4 M^–1 s^–1” and the “times slower labeling of hAGT than of SNAP” value ([8]; hAGT vs SNAP) was 20 times. The “kapp (value ± standard deviation)” value ([8]; hAGT, plate reader, model 1) was “(3.13 ± 0.01) × 10^3 M^–1 s^–1”.
